Experimental data taken from US20230085307A1, “PYRIDAZINONE COMPOUND AND HERBICIDE” (NISSAN CHEMICAL CORPORATION, priority 2019, published 2023).

Tested on: rice flat sedge
Experiment: Test Example 3: herbicidal effect by foliage application, Wagner pot (Table 18, symbol E)
Type: in vivo, rice flat sedge (Cyperus iria)
Conditions: 320 g/ha
In short: (§1)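 Plants were sown in alluvial soil held under 0.1–0.5 cm standing water and grown 14 days in a greenhouse at 25–30 °C. An emulsifiable formulation, water-diluted to the set dose, was then sprayed onto the foliage, and effects were scored three weeks later using previously defined criteria.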

| Compound | herbicidal effect on rice flat sedge (E) |
| --- | --- |
| COc1ccc2c(-c3c(O)c(C)nn(C)c3=O)c(-c3ccc(F)cc3OC)sc2c1 [3-076] | 5 (Herbicidal rate of 90% or more (almost completely withered)) |
| CCOc1ccc2c(-c3c(O)c(C)nn(C)c3=O)c(-c3ccc(OC)cc3)sc2c1 [3-091] | 4 (Herbicidal rate of 70% or more and less than 90%) |

Same assay, conditions: amount of applied herbicide 320 g/ha

| Compound | herbicidal effect on E: rice flat sedge |
| --- | --- |
| CCCC(=O)Oc1c(C)nn(C)c(=O)c1-c1c(-c2ccc(F)cc2)sc2cc(F)ccc12 [3-002] | 3 (Herbicidal rate of 40% or more and less than 70%) |

Tested on: barnyard grass
Experiment: Test Example 4: herbicidal effect by soil treatment (Table 19, symbol H)
Type: in vivo, barnyard grass (Echinochloa crus-galli)
Conditions: amount of applied herbicide 320 g/ha
In short: (§2)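 Scoring uses the grading scale of an earlier test, three weeks post-application. Treatment consists of spraying a diluted emulsion formulation across the surface of sterilized diluvial soil in which seeds are buried near 1.5 cm deep; boxes are kept in a greenhouse between 25° C. and 30° C.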

| Compound | herbicidal effect, H: barnyard grass | H: barnyard grass, herbicidal effect grade |
| --- | --- | --- |
| CCCC(=O)Oc1c(C)nn(C)c(=O)c1-c1c(-c2ccc(F)cc2)sc2cc(F)ccc12 [3-002] | 0 (Herbicidal rate of 5% or less (almost no effect)) |  |
| COc1ccc2c(-c3c(O)c(C)nn(C)c3=O)c(-c3ccc(F)cc3OC)sc2c1 [3-076] |  | 3 (Herbicidal rate of 40% or more and less than 70%) |
| CCOc1ccc2c(-c3c(O)c(C)nn(C)c3=O)c(-c3ccc(OC)cc3)sc2c1 [3-091] |  | 0 (Herbicidal rate of 5% or less (almost no effect)) |

Tested on: chickweed
Experiment: Test Example 4: herbicidal effect by soil treatment (Table 19, symbol P)
Type: in vivo, common chickweed (Stellaria media)
Conditions: amount of applied herbicide 320 g/ha
In short: as §2

| Compound | herbicidal effect, P: chickweed | P: chickweed, herbicidal effect grade |
| --- | --- | --- |
| CCCC(=O)Oc1c(C)nn(C)c(=O)c1-c1c(-c2ccc(F)cc2)sc2cc(F)ccc12 [3-002] | 3 (Herbicidal rate of 40% or more and less than 70%) |  |
| COc1ccc2c(-c3c(O)c(C)nn(C)c3=O)c(-c3ccc(F)cc3OC)sc2c1 [3-076] |  | 2 (Herbicidal rate of 20% or more and less than 40%) |
| CCOc1ccc2c(-c3c(O)c(C)nn(C)c3=O)c(-c3ccc(OC)cc3)sc2c1 [3-091] |  | 4 (Herbicidal rate of 70% or more and less than 90%) |

Tested on: persian speedwell
Experiment: Test Example 5: herbicidal effect by foliage application, plastic box (Table 20, symbol R)
Type: in vivo, Persian speedwell (Veronica persica)
Conditions: foliage application, 320 g/ha, three weeks after application
In short: (§3)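 Post-emergence foliar test in sterilized diluvial soil. Compound applied as water-diluted emulsion at a predetermined rate to 14-day-old plants; evaluation at three weeks.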

| Compound | R: persian speedwell, herbicidal effect grade |
| --- | --- |
| CCCC(=O)Oc1c(C)nn(C)c(=O)c1-c1c(-c2ccc(F)cc2)sc2cc(F)ccc12 [3-002] | 5 (Herbicidal rate of 90% or more (almost completely withered)) |
| COc1ccc2c(-c3c(O)c(C)nn(C)c3=O)c(-c3ccc(F)cc3OC)sc2c1 [3-076] | 4 (Herbicidal rate of 70% or more and less than 90%) |
| CCOc1ccc2c(-c3c(O)c(C)nn(C)c3=O)c(-c3ccc(OC)cc3)sc2c1 [3-091] | 5 (Herbicidal rate of 90% or more (almost completely withered)) |

Tested on: late watergrass
Experiment: Test Example 2: herbicidal activity, application during weed generation under submerged conditions (Table 17, symbol A)
Type: in vivo, late watergrass (Echinochloa oryzicola)
Conditions: AAH 320 g/ha; application during weed generation, submerged conditions
In short: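 Alluvial soil in Wagner pots was flooded to 4 cm depth and sown with the three weeds together; pots were kept in a greenhouse at 25° C. to 30° C. At the one to two leaf stage, an emulsion formulation diluted in water to a set rate went onto the water surface; scored three weeks later.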

| Compound | herbicidal effect rating, A: late watergrass |
| --- | --- |
| CCCC(=O)Oc1c(C)nn(C)c(=O)c1-c1c(-c2ccc(F)cc2)sc2cc(F)ccc12 [3-002] | 3 (Herbicidal rate of 40% or more and less than 70%) |
| COc1ccc2c(-c3c(O)c(C)nn(C)c3=O)c(-c3ccc(F)cc3OC)sc2c1 [3-076] | 3 (Herbicidal rate of 40% or more and less than 70%) |
| CCOc1ccc2c(-c3c(O)c(C)nn(C)c3=O)c(-c3ccc(OC)cc3)sc2c1 [3-091] | 0 (Herbicidal rate of 5% or less (almost no effect)) |

Tested on: windgrass
Experiment: Test Example 4: herbicidal effect by soil treatment (Table 19, symbol L)
Type: in vivo, windgrass (Apera spica-venti)
Conditions: amount of applied herbicide 320 g/ha
In short: as §2

| Compound | herbicidal effect, L: windgrass | L: windgrass, herbicidal effect grade |
| --- | --- | --- |
| CCCC(=O)Oc1c(C)nn(C)c(=O)c1-c1c(-c2ccc(F)cc2)sc2cc(F)ccc12 [3-002] | 3 (Herbicidal rate of 40% or more and less than 70%) |  |
| COc1ccc2c(-c3c(O)c(C)nn(C)c3=O)c(-c3ccc(F)cc3OC)sc2c1 [3-076] |  | 5 (Herbicidal rate of 90% or more (almost completely withered)) |
| CCOc1ccc2c(-c3c(O)c(C)nn(C)c3=O)c(-c3ccc(OC)cc3)sc2c1 [3-091] |  | 0 (Herbicidal rate of 5% or less (almost no effect)) |

Tested on: southern crabgrass
Experiment: Test Example 4: herbicidal effect by soil treatment (Table 19, symbol F)
Type: in vivo, southern crabgrass (Digitaria ciliaris)
Conditions: amount of applied herbicide 320 g/ha
In short: as §2

| Compound | herbicidal effect, F: southern crabgrass | F: southern crabgrass, herbicidal effect grade |
| --- | --- | --- |
| CCCC(=O)Oc1c(C)nn(C)c(=O)c1-c1c(-c2ccc(F)cc2)sc2cc(F)ccc12 [3-002] | 0 (Herbicidal rate of 5% or less (almost no effect)) |  |
| COc1ccc2c(-c3c(O)c(C)nn(C)c3=O)c(-c3ccc(F)cc3OC)sc2c1 [3-076] |  | 0 (Herbicidal rate of 5% or less (almost no effect)) |
| CCOc1ccc2c(-c3c(O)c(C)nn(C)c3=O)c(-c3ccc(OC)cc3)sc2c1 [3-091] |  | 2 (Herbicidal rate of 20% or more and less than 40%) |

Tested on: oval-leafed pondweed
Experiment: Test Example 1: herbicidal activity, application before weed generation under submerged conditions (Table 16, symbol C)
Type: in vivo, oval-leafed pondweed (Monochoria vaginalis)
Conditions: amount of applied herbicide 320 g/ha
In short: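 Emulsion formulation, water-diluted to set dose, was put onto the flooded surface (4 cm depth, alluvial soil) the same day weeds were sown and 2.5-leaf rice transplanted. After 3 weeks at 25-30 °C under glass, each species was rated 0 (≤5% kill) to 5 (≥90% kill).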

| Compound | Herbicidal effect, C: oval-leafed pondweed |
| --- | --- |
| CCCC(=O)Oc1c(C)nn(C)c(=O)c1-c1c(-c2ccc(F)cc2)sc2cc(F)ccc12 [3-002] | 4 (Herbicidal rate of 70% or more and less than 90%) |
| COc1ccc2c(-c3c(O)c(C)nn(C)c3=O)c(-c3ccc(F)cc3OC)sc2c1 [3-076] | 5 (Herbicidal rate of 90% or more (almost completely withered)) |
| CCOc1ccc2c(-c3c(O)c(C)nn(C)c3=O)c(-c3ccc(OC)cc3)sc2c1 [3-091] | 4 (Herbicidal rate of 70% or more and less than 90%) |

Tested on: redroot pigweed
Experiment: Test Example 5: herbicidal effect by foliage application, plastic box (Table 20, symbol N)
Type: in vivo, redroot pigweed (Amaranthus retroflexus)
Conditions: foliage application, 320 g/ha, three weeks after application
In short: as §3

| Compound | N: redroot pigweed, herbicidal effect grade |
| --- | --- |
| CCCC(=O)Oc1c(C)nn(C)c(=O)c1-c1c(-c2ccc(F)cc2)sc2cc(F)ccc12 [3-002] | 5 (Herbicidal rate of 90% or more (almost completely withered)) |
| COc1ccc2c(-c3c(O)c(C)nn(C)c3=O)c(-c3ccc(F)cc3OC)sc2c1 [3-076] | 5 (Herbicidal rate of 90% or more (almost completely withered)) |
| CCOc1ccc2c(-c3c(O)c(C)nn(C)c3=O)c(-c3ccc(OC)cc3)sc2c1 [3-091] | 4 (Herbicidal rate of 70% or more and less than 90%) |

Tested on: lambsquarters
Experiment: Test Example 5: herbicidal effect by foliage application, plastic box (Table 20, symbol O)
Type: in vivo, lambsquarters (Chenopodium album)
Conditions: foliage application, 320 g/ha, three weeks after application
In short: as §3

| Compound | O: lambsquarters, herbicidal effect grade |
| --- | --- |
| CCCC(=O)Oc1c(C)nn(C)c(=O)c1-c1c(-c2ccc(F)cc2)sc2cc(F)ccc12 [3-002] | 3 (Herbicidal rate of 40% or more and less than 70%) |
| COc1ccc2c(-c3c(O)c(C)nn(C)c3=O)c(-c3ccc(F)cc3OC)sc2c1 [3-076] | 5 (Herbicidal rate of 90% or more (almost completely withered)) |
| CCOc1ccc2c(-c3c(O)c(C)nn(C)c3=O)c(-c3ccc(OC)cc3)sc2c1 [3-091] | 5 (Herbicidal rate of 90% or more (almost completely withered)) |

Tested on: barnyard grass
Experiment: Test Example 3: herbicidal effect by foliage application, Wagner pot (Table 18, symbol H)
Type: in vivo, barnyard grass (Echinochloa crus-galli)
Conditions: 320 g/ha
In short: as §1

| Compound | herbicidal effect on barnyard grass (H) |
| --- | --- |
| COc1ccc2c(-c3c(O)c(C)nn(C)c3=O)c(-c3ccc(F)cc3OC)sc2c1 [3-076] | 5 (Herbicidal rate of 90% or more (almost completely withered)) |
| CCOc1ccc2c(-c3c(O)c(C)nn(C)c3=O)c(-c3ccc(OC)cc3)sc2c1 [3-091] | 2 (Herbicidal rate of 20% or more and less than 40%) |

Same assay, conditions: amount of applied herbicide 320 g/ha

| Compound | herbicidal effect on H: barnyard grass |
| --- | --- |
| CCCC(=O)Oc1c(C)nn(C)c(=O)c1-c1c(-c2ccc(F)cc2)sc2cc(F)ccc12 [3-002] | 5 (Herbicidal rate of 90% or more (almost completely withered)) |

Tested on: false cleavers
Experiment: Test Example 4: herbicidal effect by soil treatment (Table 19, symbol Q)
Type: in vivo, false cleavers (Galium spurium)
Conditions: amount of applied herbicide 320 g/ha
In short: as §2

| Compound | herbicidal effect, Q: false cleavers | Q: false cleavers, herbicidal effect grade |
| --- | --- | --- |
| CCCC(=O)Oc1c(C)nn(C)c(=O)c1-c1c(-c2ccc(F)cc2)sc2cc(F)ccc12 [3-002] | 1 (Herbicidal rate of 5% or more and less than 20%) |  |
| COc1ccc2c(-c3c(O)c(C)nn(C)c3=O)c(-c3ccc(F)cc3OC)sc2c1 [3-076] |  | 4 (Herbicidal rate of 70% or more and less than 90%) |
| CCOc1ccc2c(-c3c(O)c(C)nn(C)c3=O)c(-c3ccc(OC)cc3)sc2c1 [3-091] |  | 5 (Herbicidal rate of 90% or more (almost completely withered)) |

Tested on: Chinese sprangletop
Experiment: Test Example 3: herbicidal effect by foliage application, Wagner pot (Table 18, symbol D)
Type: in vivo, chinese sprangletop (Leptochloa chinensis)
Conditions: 320 g/ha
In short: as §1

| Compound | herbicidal effect on Chinese sprangletop (D) |
| --- | --- |
| COc1ccc2c(-c3c(O)c(C)nn(C)c3=O)c(-c3ccc(F)cc3OC)sc2c1 [3-076] | 3 (Herbicidal rate of 40% or more and less than 70%) |
| CCOc1ccc2c(-c3c(O)c(C)nn(C)c3=O)c(-c3ccc(OC)cc3)sc2c1 [3-091] | 0 (Herbicidal rate of 5% or less (almost no effect)) |

Same assay, conditions: amount of applied herbicide 320 g/ha

| Compound | herbicidal effect on D: Chinese sprangletop |
| --- | --- |
| CCCC(=O)Oc1c(C)nn(C)c(=O)c1-c1c(-c2ccc(F)cc2)sc2cc(F)ccc12 [3-002] | 0 (Herbicidal rate of 5% or less (almost no effect)) |

Tested on: false cleavers
Experiment: Test Example 5: herbicidal effect by foliage application, plastic box (Table 20, symbol Q)
Type: in vivo, false cleavers (Galium spurium)
Conditions: foliage application, 320 g/ha, three weeks after application
In short: as §3

| Compound | Q: false cleavers, herbicidal effect grade |
| --- | --- |
| CCCC(=O)Oc1c(C)nn(C)c(=O)c1-c1c(-c2ccc(F)cc2)sc2cc(F)ccc12 [3-002] | 5 (Herbicidal rate of 90% or more (almost completely withered)) |
| COc1ccc2c(-c3c(O)c(C)nn(C)c3=O)c(-c3ccc(F)cc3OC)sc2c1 [3-076] | 4 (Herbicidal rate of 70% or more and less than 90%) |
| CCOc1ccc2c(-c3c(O)c(C)nn(C)c3=O)c(-c3ccc(OC)cc3)sc2c1 [3-091] | 5 (Herbicidal rate of 90% or more (almost completely withered)) |
